One may read the IC50 as the concentration at which inhibition is half-maximal.

For the first assay, the target named is T1, human GnRH receptor (Homo sapiens, UniProt P30968).
T1 construct: expressed in transfected cells; host or cells: CHO (Chinese Hamster Ovary) cells, membrane fraction
T1 sequence (P30968 1-328): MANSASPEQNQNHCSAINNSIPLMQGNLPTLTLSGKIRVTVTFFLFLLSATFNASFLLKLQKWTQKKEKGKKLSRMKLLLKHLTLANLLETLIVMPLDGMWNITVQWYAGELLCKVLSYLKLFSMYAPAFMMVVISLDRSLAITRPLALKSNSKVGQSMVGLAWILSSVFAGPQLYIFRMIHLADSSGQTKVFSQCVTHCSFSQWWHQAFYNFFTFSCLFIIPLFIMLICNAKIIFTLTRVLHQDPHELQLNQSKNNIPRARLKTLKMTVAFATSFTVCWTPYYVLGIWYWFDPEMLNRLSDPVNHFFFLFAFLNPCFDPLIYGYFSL
Nature of the assay: Test for inhibition of ^125 I-leuprorelin binding to human GnRH receptor. Conditions: membrane fraction of CHO cells expressing human GnRH receptors, 25° C., 60 minutes, read-out: Binding Inhibitory Activity (IC50, μM) for human GnRH receptor. Here is the method: (A) Preparation of ^125 I-leuprorelin
Ten μl of a 3×10^-4 M aqueous solution of leuprorelin and 10μl of 0.01 mg/ml lactoperoxidase in 0.1M Hepes buffer (pH7.4) were put in a tube, to which was added 10 μl of an Na^125 I solution (37 MBq). The mixture was stirred, to which was added 10 μl of 0.001% H2 O2, followed by allowing the reaction to proceed for 20 minutes at room temperature. To the reaction mixture was added 700 μl of a 0.05% TFA solution to stop the reaction. The product of was purified by means of a reverse-phase HPLC. Conditions of HPLC were as follows:
(D) Preparation of membrane fraction of CHO (Chinese Hamster Ovary) cells containing human GnRH receptors
CHO cells (10^9) expressing human GnRH receptors were suspended in a phosphate-buffered saline supplemented with 5 mM EDTA. The suspension was subjected to centrifugal separation for 5 minutes at 100×g. To the pellet of cells was added 10 ml of a homogenate buffer for cells (10 mM NaHCO3, 5 mM EDTA, pH 7.5), which was homogenated by using a Polytron homogenizer. Centrifugal separation was conducted for 15 minutes at 400×g. The supernatant was taken into an ultracentrifugal tube, which was subjected to centrifuge for one hour at 100,000×g to give precipitate of the membrane fraction. The precipitate was suspended in 2 ml of the assay buffer, which was centrifuged for one hour at 100,000×g. The membrane fraction recovered as precipitate was again suspended in 20 ml of the assay buffer, which was distributed to vials and stored at -80° C. until used.
(E) Determination of inhibitory rate of ^125 I-leuprorelin binding
In the cases of using rat and human pituitary membrane fractions prepared in (B) and (D), they were respectively diluted with the assay buffer to 200 μg/ml and 188 μl each was distributed to tubes. In the case of using bovine pituitary membrane fraction prepared in (C), it was diluted with the assay buffer to 750 μg/ml and 188 μl each was distributed into tubes. In the case where the membrane fraction of anterior lobes of rat pituitary gland was used, 2 μl of a 0.1 mM compound dissolved in 60% DMSO (dimethylsulfoxide) and 10 μl of 38 nM ^125 I-leuprorelin were added thereto simultaneously. In the case where the membrane fraction of anterior lobes of bovine pituitary gland and the membrane fraction derived from the CHO cells expressing human GnRH receptors were used, 2 μl of a 2 mM compound dissolved in 60% DMSO and 10 μl of 38 nM ^125 I-leuproprelin were added simultaneously. For determining the maximum binding amount, a solution for reaction supplemented with 2 μl of 60% DMSO and 10 μl of 38 nM ^125 I-leuprorelin was prepared. And, for determining the amount of non-specific binding, a solution for reaction supplemented with 2 μl of 100 μM leuprorelin dissolved in 60% DMSO and 10 μl of 38 nM ^125 I-leuprorelin were also prepared simultaneously.
In the cases where membrane fractions of anterior lobes of rat and bovine pituitary were used, reaction was allowed to proceed at 4° C. for 90 minutes, while in the case where the membrane fraction derived from the CHO cells expressing human GnRH receptor was used, reaction was allowed to proceed at 25° C. for 60 minutes. The reaction mixtures were respectively subjected to filtration under sucking with Whatman glass filter (GF-F) processed with polyethyleneimine. After completing the filtration, radioactivity of the ^125 I-leuprorelin remaining on the filter paper was measured with a γ-counter.
By calculation of (TB-SB)/(TB-NSB)×100 (SB: radioactivity obtained when a compound was added, TB: radioactivity for the maximum binding, NSB: radioactivity for the non-specific binding), the binding inhibitory rate of each test compound was determined. Besides, the inhibitory rates were determined by changing the concentrations of test compounds, and the concentration of a test compound inhibiting the specific binding by 50% (IC50 value) was calculated by way of Hill plot.
In the case of `O=C1c2ccccc2C(=O)N1CC(=O)N1c2ccccc2N(Cc2ccc([N+](=O)[O-])cc2)C(=O)[C@H]2CCC[C@H]21` (relative stereo) [compound 195], the concentration for half-maximal inhibition (IC50) was determined as 0.5 µM.
Still for that read-out and setting: the value for `O=C1c2ccccc2C(=O)N1CC(=O)N1c2ccccc2N(Cc2cccc([N+](=O)[O-])c2)C(=O)[C@H]2CCC[C@H]21` (relative stereo) [compound 209] was 2 µM.
Still for that read-out and setting: the value for `N#Cc1ccc(CN2C(=O)[C@H]3CCC[C@H]3N(C(=O)CN3C(=O)c4ccccc4C3=O)c3ccccc32)cc1` (relative stereo) [compound 210] was 0.4 µM; that for `CSc1ccc(CN2C(=O)[C@H]3CCC[C@H]3N(C(=O)CN3C(=O)c4ccccc4C3=O)c3ccccc32)cc1` (relative stereo) [compound 212] was 1 µM.
For `O=C1c2ccccc2C(=O)N1CC(=O)N1c2ccccc2N(Cc2ccc(O)cc2)C(=O)[C@H]2CCC[C@H]21` (relative stereo) [compound 214], the IC50 was 1 µM.
The same measure, in the same setting: then `O=C1c2ccccc2C(=O)N1CC(=O)N1c2ccccc2N(Cc2cccc(O)c2)C(=O)[C@H]2CCC[C@H]21` (relative stereo) [compound 215], with 2 µM; and `O=C1c2ccccc2C(=O)N1CC(=O)N1c2ccccc2N(CCc2ccccc2)C(=O)[C@H]2CCC[C@H]21` (relative stereo) [compound 217], with 0.7 µM; and `O=C1CC(/C=C/c2ccccc2)Nc2ccccc2N1Cc1ccccc1` (centres unmarked) [compound 36], with 2 µM.
Same read-out and setting: then `O=C1[C@H]2CCC[C@H]2N(C(=O)CN2C(=O)c3ccccc3C2O)c2ccccc2N1Cc1ccccc1` (some centres unmarked) [compound 65], with 14 µM; and `O=C1c2ccccc2C(O)N1CC(=O)N1c2ccccc2N(Cc2ccccc2)C[C@H]2CCC[C@H]21` (some centres unmarked) [compound 66], with 8 µM; and `O=C1C2=C(CCCC2)C(=O)N1CC(=O)N1c2ccccc2N(Cc2ccccc2)C(=O)C2CCCC21` (centres unmarked) [compound 76], with 1 µM.
On the same count and under the same terms, the value for `COc1cccc(CN2C(=O)C3CCCC3N(C(=O)CN3C(=O)c4ccccc4C3=O)c3ccccc32)c1` (centres unmarked) [compound 111] was 4 µM; that for `COc1ccc(CN2C(=O)C3CCCC3N(C(=O)CN3C(=O)c4ccccc4C3=O)c3ccccc32)cc1` (centres unmarked) [compound 112] was 2 µM.
For the compound `O=C1c2ccccc2C(=O)N1CC(=O)N1c2ccccc2N(c2ccccc2)C(=O)C2CCCC21` (centres unmarked) [compound 121], the half-inhibitory concentration (IC50) was 11 µM.
The same measure, in the same setting: then `O=C1C2CCCCC2C(=O)N1CC(=O)N1c2ccccc2N(Cc2ccccc2)C(=O)C2CCCC21` (centres unmarked) [compound 174], with 5 µM; and `O=C1C2CCCCC2C(=O)N1CC(=O)N1c2ccccc2N(Cc2ccccc2)C(=O)[C@H]2CCC[C@H]21` (some centres unmarked) [compound 175], with 1 µM.

Another assay deals with ethanol-induced sleep in mice. Nature of the assay: Effects on ethanol-induced sleep in mice. Type of assay: in vivo, ICR male mice. As to conditions: 30 mg/kg orally, 30 minutes before 25% ethanol i.p.; 8 animals. How it is done:
(F) Effects on ethanol-induced sleep in mice
ICR male mice of 4-5 week old were orally administered with test compounds suspended in a physiological saline solution or 5% gum arabic solution at a dosage of 30 mg/kg (8 animals in each group). Thirty minutes later, test animals were intrapritoneally injected with 25% ethanol (0.2 mL/10 g). The duration of sleep was measured as the time from the onset of righting reflex until the righting reflex was regained.
Turning to `O=C1[C@H]2CCC[C@H]2Nc2ccccc2N1Cc1ccc(Cl)cc1Cl` (relative stereo) [compound 37], the “Percentage (%) of sleeping time relative to control” value is on record as 145%.
On the same count and under the same terms, then `CN1c2ccccc2N(Cc2ccccc2)C(=O)[C@H]2CCC[C@H]21` (relative stereo) [compound 63], with 37%; and `CC(=O)N1c2ccccc2N(Cc2ccccc2)C(=O)[C@H]2CCC[C@H]21` (relative stereo) [compound 64], with 41%; and `Nc1ccc(CN2C(=O)C3CCCC3=Nc3ccccc32)cc1` (centres unmarked) [compound 17], with 33%.
In the case of `O=C1N(Cc2ccccc2)c2ccccc2NC2CCCC12Cc1ccccc1` (centres unmarked) [compound 29], the “Percentage (%) of sleeping time relative to control” value was 50%.

The test system of the next assay is pentobarbital-induced sleep in mice. Nature of the assay: Effect on pentobarbital-induced sleep in mice. Type of assay: in vivo, ICR male mice. Conditions: 10 mg/kg orally, 30 minutes before sodium pentobarbital 55 mg/kg i.p. How it is done: (G) Effect on pentobarbital-induced sleep in mice
ICR male mice of 5-6 week old were orally administered with test samples dissolved or suspended in a physiological saline solution or 5% gum solution dosage of 100 mg/kg (2-3 animals in each group), and behavioral observation was conducted at 15, 30, 60 and 120 minutes after the administration.
As the next stage, ICR male mice of 4-5 week old were orally administered with test samples dissolved or suspended in a physiological saline solution or 5% gum arabic solution at a dosage which was one rank lower than the dosage determined as above (8 animals in each group). Thirty minutes after the administration, test animals were administered intraperitoneally with sodium pentobarbital at a dosage of 55 mg/kg. The duration of sleep was measured as the time from the onset of righting reflex until the righting reflex was regained.
In the case of `O=C1C2CCCC2=Nc2ccccc2N1Cc1ccncc1` (centres unmarked) [compound 9], the “Percentage (%) of sleeping time relative to control” value was determined as 176%.

The assay is the same for the next values; noted with them: 20 mg/kg orally, 30 minutes before sodium pentobarbital 55 mg/kg i.p.
For the compound `CN1c2ccccc2N(Cc2ccccc2)C[C@H]2CCC[C@H]21` (relative stereo) [compound 45], the “Percentage (%) of sleeping time relative to control” value is given as 124%.
Same read-out and setting: the value for `O=C1C2CCCC2=Nc2ccccc2N1Cc1ccccc1F` (centres unmarked) [compound 5] was 140%.

The same assay, now with this note: 50 mg/kg orally, 30 minutes before sodium pentobarbital 55 mg/kg i.p.
`O=C1[C@H]2CCC[C@H]2Nc2ccccc2N1Cc1ccc(Cl)cc1Cl` (relative stereo) [compound 37]: the “Percentage (%) of sleeping time relative to control” value is given as 128%.
Same read-out and setting: then `O=C1C2CCCC2=Nc2ccccc2N1Cc1ccc(Cl)cc1` (centres unmarked) [compound 4], with 140%.

The test system of a further assay is GnRH receptor.
Test: not given
Conditions: relative to GnRH obtained from natural sources; cited from earlier work.
Regarding `CCNC(=O)[C@@H]1CCCN1C(=O)[C@H](CCCNC(=N)N)NC(=O)[C@H](CC(C)C)NC(=O)[C@@H](CC(C)C)NC(=O)[C@H](Cc1ccc(O)cc1)NC(=O)[C@H](CO)NC(=O)[C@H](Cc1c[nH]c2ccccc12)NC(=O)[C@H](Cc1c[nH]cn1)NC(=O)[C@@H]1CCC(=O)N1` [leuprorelin], the “affinity to GnRH receptor” value is on record as “higher affinity to GnRH receptor than GnRH obtained from natural sources”.

Tested on in the next assay: not given
Test: not given
Conditions: for example, prostatic cancer; cited from earlier work.
Consider `CCNC(=O)[C@@H]1CCCN1C(=O)[C@H](CCCNC(=N)N)NC(=O)[C@H](CC(C)C)NC(=O)[C@@H](CC(C)C)NC(=O)[C@H](Cc1ccc(O)cc1)NC(=O)[C@H](CO)NC(=O)[C@H](Cc1c[nH]c2ccccc12)NC(=O)[C@H](Cc1c[nH]cn1)NC(=O)[C@@H]1CCC(=O)N1` [Leuprorelin acetate], for which the “anti-tumor activity against hormone-dependent cancers” value is on record as “shows anti-tumor activity”.

Still in this assay, the particulars now being: repeated administration; cited from earlier work.
Turning to `CCNC(=O)[C@@H]1CCCN1C(=O)[C@H](CCCNC(=N)N)NC(=O)[C@H](CC(C)C)NC(=O)[C@@H](CC(C)C)NC(=O)[C@H](Cc1ccc(O)cc1)NC(=O)[C@H](CO)NC(=O)[C@H](Cc1c[nH]c2ccccc12)NC(=O)[C@H](Cc1c[nH]cn1)NC(=O)[C@@H]1CCC(=O)N1` [Leuprorelin acetate], the productivity of testosterone entry is reported as “reduce the productivity of testosterone to the level of castration”.

The values are drawn from patent US5834463A, “Condensed heterocyclic compounds, their production and use” (Takeda Chemical Industries, Ltd., priority 1994, dated 1998).
